Data on eight compounds can be found in US7175991B2, “Method of measuring binding site on plasma protein of plasma protein-binding drug and method of measuring plasma protein mutation” (Nihon Medi-Physics Co., Ltd., priority 2002, dated 2007).

The structures appear in SMILES notation. Read-outs that look alike come from different tables or passages of the source.

Data set [1] concerns HSA Site II and AGP. Description: Four-nuclide simultaneous measurement, human serum 2 (AGP variant): displacement of ^125I-IMP. From the text: (§1) In addition, the possibility of monitoring the protein binding displacement effect of a drug in the serum was examined.
For data set [2], the target named is T1, HSA Site I (Homo sapiens, UniProt P02768). In words: Four-nuclide simultaneous measurement, human serum 1: displacement of ^99mTcO4^-. As to conditions: human serum 1, four nuclides.
T1 sequence (P02768 25-609): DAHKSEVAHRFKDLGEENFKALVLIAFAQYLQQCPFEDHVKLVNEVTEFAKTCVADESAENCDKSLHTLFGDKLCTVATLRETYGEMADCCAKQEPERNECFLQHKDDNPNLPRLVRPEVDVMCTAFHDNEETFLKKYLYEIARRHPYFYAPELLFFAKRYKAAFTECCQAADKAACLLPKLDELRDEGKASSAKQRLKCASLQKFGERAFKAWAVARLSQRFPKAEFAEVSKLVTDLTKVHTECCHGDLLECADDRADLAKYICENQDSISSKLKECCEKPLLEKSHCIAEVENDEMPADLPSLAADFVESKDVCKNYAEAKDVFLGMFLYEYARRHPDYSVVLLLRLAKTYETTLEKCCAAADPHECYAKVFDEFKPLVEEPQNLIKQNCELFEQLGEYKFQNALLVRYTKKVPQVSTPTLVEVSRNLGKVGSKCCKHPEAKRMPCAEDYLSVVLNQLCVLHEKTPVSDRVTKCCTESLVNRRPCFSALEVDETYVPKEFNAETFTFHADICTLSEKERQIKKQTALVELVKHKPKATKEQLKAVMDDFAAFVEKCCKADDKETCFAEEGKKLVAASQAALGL
The test system of data set [3] is AGP Site A and B. Description: Four-nuclide simultaneous measurement, human serum 2 (AGP variant): displacement of ^3H-PPL.
Source text: as §1

Data set [4] deals with T1, HSA Site I. In words: Four-nuclide simultaneous measurement, human serum 2 (AGP variant): displacement of ^99mTcO4^-.
Source text: as §1

The target in data set [5] is T1, HSA Site I. Conditions: human serum 1; added drug 400 μM.
In data set [6] the target is T1, HSA Site I. As to conditions: 400 μM, pH 7.4.
Data set [7] concerns AGP Site A and B. As to conditions: for Change ratio (time) of ^3H-PPL free drug ratio / Free drug ratio (%) of ^3H-PPL: human, 400 μM, pH 7.4.
Data set [8] relates to HSA Site II and AGP. Conditions: human, 400 μM, pH 7.4.
For data set [9], the target named is HSA Site II (Homo sapiens, UniProt P02768). As to conditions: for Change ratio (time) of ^14C-DZP free drug ratio / Free drug ratio (%) of ^14C-DZP: human, 400 μM, pH 7.4.
Sequence of HSA Site II (P02768 25-609): as above
Data set [10] has as its target T1, HSA Site I. Description: Table 6, two-nuclide simultaneous measure, human pooled serum: column headed ^99mTcO4^-. As to conditions: physiological saline instead of displacement drug.
The test system of data set [11] is plasma protein. Conditions: used in the concentration of a diagnostic agent; cited from earlier work.
The test system of data set [12] is HSA Site II and AGP. In words: Table 6, two-nuclide simultaneous measure, human pooled serum: column headed ^125I-IMP. Conditions: physiological saline instead of displacement drug.
The subject of data set [13] is HSA Site II and AGP. Description: Four-nuclide simultaneous measurement, human serum 1: displacement of ^125I-IMP. As to conditions: human serum 1, four nuclides.
[14] abbreviates: physiological saline instead of displacement drug (Table 5).
Where [15] appears, read: physiological saline instead of drug (Table 4).
The mark [16] stands for this setting: physiological saline control (Table 8).
Setting [17] is: physiological saline instead of drug (Table 7).

With `CCCCC1C(=O)NC(=O)N(C2CCCCC2)C1=O` (stereo not shown) [BCL, bucolome], in data set [1], the “Effect on binding of ^125I-IMP, in words” value is “increased”. Further, the “Displacement effect on drug with affinity to site I of HSA (^99mTcO4^-), in words” value in data set [2] was “significant displacement effect”. In data set [3] (human serum 2 (AGP variant)), the “Effect on binding of ^3H-PPL, in words” value was “increased”. Besides, the “Displacement effect on ^99mTcO4^-, in words” value in [4] was “significant displacement effect”. The “Displacement effect on ^14C-WRF, in words” value in data set [5] is given as “significant displacement effect”.

Take `CC[C@H]1OC(=O)[C@H](C)[C@@H](O[C@H]2C[C@@](C)(OC)[C@@H](O)[C@H](C)O2)[C@H](C)[C@@H](O[C@@H]2O[C@H](C)C[C@H](N(C)C)[C@H]2O)[C@](C)(O)C[C@@H](C)C(=O)[C@H](C)[C@@H](O)[C@]1(C)O` [ETM, erythromycin]: in data set [6], the “Change ratio (time) of ^99mTcO4^- free drug ratio” value stood at 0.99 time and the “Free drug ratio (%) of ^99mTcO4^-” value stood at 0.88%. For the same compound, in data set [7], the “Effect on free drug with affinity to AGP, in words” value is recorded as “effective displacement drug”; the “Change ratio (time) of ^3H-PPL free drug ratio” value is given as 1.93 time; the “Free drug ratio (%) of ^3H-PPL” value is 23.79%. In [8], the “Change ratio (time) of ^125I-IMP free drug ratio” value amounted to 1.61 time and the “Free drug ratio (%) of ^125I-IMP” value came to 54.78%. Besides, in data set [9], the “Change ratio (time) of ^14C-DZP free drug ratio” value came to 1.04 time and the “Free drug ratio (%) of ^14C-DZP” value worked out at 2.67%.

Take `CC(C)Cc1ccc(C(C)C(=O)O)cc1` (stereo not shown) [IPF, ibuprofen]: the “Effect on binding of ^3H-PPL, in words” value in data set [3] is “increased”.

Turning to `CC(=O)N[C@@H](Cc1c[nH]c2ccccc12)C(=O)O` [NAT, N-acetyltryptophan], in [6], the “Change ratio (time) of ^99mTcO4^- free drug ratio” value was 1.07 time and the “Free drug ratio (%) of ^99mTcO4^-” value was found to be 0.97%. Besides, in [7], the “Effect on free drug with affinity to AGP, in words” value is “effect to reduce the concentration to some extent”; the “Change ratio (time) of ^3H-PPL free drug ratio” value was found to be 0.94 time; the “Free drug ratio (%) of ^3H-PPL” value worked out at 11.54%. In addition, in [8], the “Change ratio (time) of ^125I-IMP free drug ratio” value came to 1.01 time and the “Free drug ratio (%) of ^125I-IMP” value turned out to be 34.19%. Also, in data set [9], the “Effect on free drug with affinity to site II of HSA, in words” value is on record as “effective displacement drug”; the “Change ratio (time) of ^14C-DZP free drug ratio” value stood at 1.21 time; the “Free drug ratio (%) of ^14C-DZP” value worked out at 3.08%.

As to `N[C@@H](Cc1c[nH]c2ccccc12)C(=O)O` [Trp, tryptophan], in data set [6], the “Change ratio (time) of ^99mTcO4^- free drug ratio” value is recorded as 1.08 time. In [7], the “Change ratio (time) of ^3H-PPL free drug ratio” value was found to be 1.01 time. Further, the “Change ratio (time) of ^125I-IMP free drug ratio” value in data set [8] is reported as 0.94 time. Moreover, the “Change ratio (time) of ^14C-DZP free drug ratio” value in data set [9] is on record as 2.25 time.

`[O]=[99Tc](=[O])(=[O])[O-]` [^99 mTcO4^-, Pertechnetium acid]: the “Free drug ratio of control (%), ^99mTcO4^-” value was found to be 0.90% in [10]; 21.07% in [2] (setting [14]); 21.07% in data set [2] (setting [15]); 21.08% in [4] (setting [16]); 21.08% in [4] (setting [17]).

Turning to `O=C([O-])CN=C([O-])CN=C([O-])CN=C([O-])C[S-].[O-2].[Tc+4]` [^99mTc-MAG3, 99m-technetium labeled mercaptoacetylglycylglycylglycine], the “Binding to plasma protein” value in [11] is on record as “about 90%”.

For `CC(C)NC(C)Cc1ccc([125I])cc1` (stereo not shown) [^125I-IMP], the “Free drug ratio of control (%), ^125I-IMP” value in data set [1] (setting [16]) came to 27.23%; in data set [1] (setting [17]), 27.23%; in [12], 33.98%; in data set [13] (setting [14]), 23.40%; in [13] (setting [15]), 23.40%.
